# Patent US11345712B2, “Protein-targeting compounds and pharmaceutical compositions thereof, and their therapeutic applications” (BioTheryX, Inc., priority 2019, dated 2022)
# What was measured:
# IKAROS = target: T1, IKAROS (Homo sapiens, UniProt Q13422+Q96SW2); assay: Protein degradation assay (Western blot) in MV-4-11 cells: IKAROS; assay type: cell-based; conditions: 6-8 h, compound concentration 0.1 μM
# T1 construct: Whole cell extracts were prepared using a radioimmunoprecipitation assay (RIPA) buffer; endogenous in cells; host or cells: MV-4-11
# T1 sequence (Q13422 whole entry): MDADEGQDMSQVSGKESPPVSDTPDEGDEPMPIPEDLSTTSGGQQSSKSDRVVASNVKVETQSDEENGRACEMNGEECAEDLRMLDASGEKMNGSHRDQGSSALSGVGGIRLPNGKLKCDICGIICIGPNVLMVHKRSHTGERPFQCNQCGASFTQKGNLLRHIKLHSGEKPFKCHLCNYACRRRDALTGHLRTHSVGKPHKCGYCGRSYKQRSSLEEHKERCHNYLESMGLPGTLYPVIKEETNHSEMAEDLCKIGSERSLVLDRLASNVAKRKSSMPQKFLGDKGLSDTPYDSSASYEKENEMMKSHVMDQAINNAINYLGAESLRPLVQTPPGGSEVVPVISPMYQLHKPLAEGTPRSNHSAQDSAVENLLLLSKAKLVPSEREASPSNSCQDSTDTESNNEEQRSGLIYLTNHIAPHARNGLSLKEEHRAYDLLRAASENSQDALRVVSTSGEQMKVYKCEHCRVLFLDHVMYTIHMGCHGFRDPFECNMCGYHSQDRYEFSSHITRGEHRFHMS
# T1 sequence (Q96SW2 whole entry): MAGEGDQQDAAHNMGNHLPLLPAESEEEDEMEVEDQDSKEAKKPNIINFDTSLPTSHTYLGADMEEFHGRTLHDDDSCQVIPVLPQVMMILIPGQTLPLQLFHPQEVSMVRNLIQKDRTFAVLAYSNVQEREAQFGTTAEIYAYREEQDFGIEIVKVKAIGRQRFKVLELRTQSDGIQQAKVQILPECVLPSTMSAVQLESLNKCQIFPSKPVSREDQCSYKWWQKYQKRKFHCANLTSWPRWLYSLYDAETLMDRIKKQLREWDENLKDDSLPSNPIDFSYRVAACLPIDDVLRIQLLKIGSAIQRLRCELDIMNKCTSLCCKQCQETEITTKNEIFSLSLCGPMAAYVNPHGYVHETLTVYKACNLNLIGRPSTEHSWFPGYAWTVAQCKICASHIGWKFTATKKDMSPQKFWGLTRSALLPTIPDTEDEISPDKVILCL
# T1 sequence (Q16531 whole entry partner): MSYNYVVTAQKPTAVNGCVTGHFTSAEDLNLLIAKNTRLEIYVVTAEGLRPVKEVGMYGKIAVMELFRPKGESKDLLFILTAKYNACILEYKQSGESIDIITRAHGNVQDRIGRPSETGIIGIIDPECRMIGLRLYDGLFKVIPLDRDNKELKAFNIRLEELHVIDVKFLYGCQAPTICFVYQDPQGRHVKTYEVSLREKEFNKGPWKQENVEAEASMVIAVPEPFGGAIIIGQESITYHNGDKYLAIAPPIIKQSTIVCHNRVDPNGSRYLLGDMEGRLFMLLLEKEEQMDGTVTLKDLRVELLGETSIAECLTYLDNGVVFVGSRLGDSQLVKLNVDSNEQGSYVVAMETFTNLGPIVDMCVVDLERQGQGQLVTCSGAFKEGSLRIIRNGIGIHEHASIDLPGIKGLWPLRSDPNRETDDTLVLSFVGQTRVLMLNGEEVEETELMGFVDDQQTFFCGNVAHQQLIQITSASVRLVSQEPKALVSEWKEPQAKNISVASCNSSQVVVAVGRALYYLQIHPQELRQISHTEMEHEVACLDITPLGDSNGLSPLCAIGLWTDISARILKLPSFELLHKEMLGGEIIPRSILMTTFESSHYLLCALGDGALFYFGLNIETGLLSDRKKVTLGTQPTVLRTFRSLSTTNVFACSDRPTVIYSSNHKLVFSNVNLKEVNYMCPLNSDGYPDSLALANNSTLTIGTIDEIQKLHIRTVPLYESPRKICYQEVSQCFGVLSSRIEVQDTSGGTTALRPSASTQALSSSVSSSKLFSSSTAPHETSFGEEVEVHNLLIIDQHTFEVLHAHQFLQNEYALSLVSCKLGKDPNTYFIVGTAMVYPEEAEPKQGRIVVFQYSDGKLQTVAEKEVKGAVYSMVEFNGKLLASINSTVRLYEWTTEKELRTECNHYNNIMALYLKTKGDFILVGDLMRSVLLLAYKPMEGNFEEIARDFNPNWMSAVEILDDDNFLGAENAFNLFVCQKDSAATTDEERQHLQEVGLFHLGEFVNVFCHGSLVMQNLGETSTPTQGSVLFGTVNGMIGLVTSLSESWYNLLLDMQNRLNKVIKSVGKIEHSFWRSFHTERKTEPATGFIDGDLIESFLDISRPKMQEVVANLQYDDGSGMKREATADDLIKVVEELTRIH
# Protocol: (§1) MV-4-11 cells were grown in RPMI 1640 media supplemented with 10% fetal bovine serum, streptomycin, and penicillin. The cells were cultured at approximately 10^6 cells per mL and incubated in DMSO or a compound for 6-8 h. Whole cell extracts were prepared using a radioimmunoprecipitation assay (RIPA) buffer. Briefly, 3×10^6 cells were washed once in PBS, and the cell pellets were resuspended in the RIPA buffer and incubated for 15 min on ice. Cells debris was removed by centrifugation and the cleared whole cell lysates were transferred to new tubes for further analysis.
# (§2) For Western blot analysis, whole cell protein extracts were separated on 4-12% SDS-polyacrylamide gels, transferred to nitrocellulose, and probed with primary antibodies. Membranes were subsequently washed and probed with IRDYE® secondary antibodies. The signal was detected using an ODYSSEY® Imaging System.
# (§3) The following antibodies were used in the assays described herein: anti-eRF3/GSPT1: Abcam, ab126090 (Cambridge, Mass.); anti-Ikaros: Abcam, ab191394 (Cambridge, Mass.); anti-CK1α: Abcam, ab108296 (Cambridge, Mass.); β-actin (8H10D10) mouse monoclonal antibody: Cell Signaling Technology, #3700 (Danvers, Mass.); IRDYE® 680RD goat anti-rabbit antibody: LI-COR, 926-68071 (Lincoln, Nebr.); and IRDYE® 800CW goat anti-mouse antibody: LI-COR, 926-32210 (Lincoln, Nebr.).
# (§4) The protein degradation results are summarized in Table 1, wherein A represents a value no less than 80%, B represents a value less than 80% but no less than 50%, C represents a value less than 50% but no less than 25%, and D represents a value less than 25% protein degradation at a compound concentration of 0.1 μM.
# CK1α = target: T2, CK1α (Homo sapiens, UniProt P48729+Q96SW2); assay: Protein degradation assay (Western blot) in MV-4-11 cells: CK1α; assay type: cell-based; conditions: 6-8 h, compound concentration 0.1 μM
# T2 construct: Whole cell extracts were prepared using a radioimmunoprecipitation assay (RIPA) buffer; endogenous in cells; host or cells: MV-4-11
# T2 sequence (P48729 whole entry): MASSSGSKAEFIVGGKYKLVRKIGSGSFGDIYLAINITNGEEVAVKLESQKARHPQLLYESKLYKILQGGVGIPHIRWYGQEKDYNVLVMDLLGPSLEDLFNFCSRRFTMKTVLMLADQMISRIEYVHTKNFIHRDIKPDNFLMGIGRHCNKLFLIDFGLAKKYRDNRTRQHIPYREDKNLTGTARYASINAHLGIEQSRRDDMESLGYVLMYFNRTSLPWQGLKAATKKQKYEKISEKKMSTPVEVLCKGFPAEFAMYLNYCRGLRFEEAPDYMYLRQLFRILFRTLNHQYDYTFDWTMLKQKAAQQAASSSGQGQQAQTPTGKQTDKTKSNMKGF
# T2 sequence (Q96SW2 whole entry): as the sequence (Q96SW2 whole entry) above
# T2 sequence (Q16531 whole entry partner): as the sequence (Q16531 whole entry partner) above
# Protocol: as §1, §2, §3, §4
# GSPT1 = target: T3, GSPT1 (Homo sapiens, UniProt P15170+Q96SW2); assay: Protein degradation assay (Western blot) in MV-4-11 cells: GSPT1; assay type: cell-based; conditions: 6-8 h, compound concentration 0.1 μM
# T3 construct: Whole cell extracts were prepared using a radioimmunoprecipitation assay (RIPA) buffer; endogenous in cells; host or cells: MV-4-11
# T3 sequence (P15170 whole entry): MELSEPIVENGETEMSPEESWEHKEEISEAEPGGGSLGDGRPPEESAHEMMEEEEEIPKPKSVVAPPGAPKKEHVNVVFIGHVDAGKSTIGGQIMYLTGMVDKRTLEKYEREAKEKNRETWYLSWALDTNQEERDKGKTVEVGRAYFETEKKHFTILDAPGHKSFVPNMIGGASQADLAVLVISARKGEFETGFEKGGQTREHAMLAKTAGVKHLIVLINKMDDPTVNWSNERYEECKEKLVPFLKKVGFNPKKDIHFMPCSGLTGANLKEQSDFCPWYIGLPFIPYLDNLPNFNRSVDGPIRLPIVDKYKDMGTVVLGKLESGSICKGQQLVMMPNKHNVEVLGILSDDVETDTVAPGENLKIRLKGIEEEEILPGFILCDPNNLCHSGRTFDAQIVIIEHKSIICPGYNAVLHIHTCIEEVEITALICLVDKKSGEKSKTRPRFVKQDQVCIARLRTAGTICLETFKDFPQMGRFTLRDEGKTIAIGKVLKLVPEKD
# T3 sequence (Q96SW2 whole entry): as the sequence (Q96SW2 whole entry) above
# T3 sequence (Q16531 whole entry partner): as the sequence (Q16531 whole entry partner) above
# Protocol: as §1, §2, §3, §4
# IL-1β = assay: Cytokine modulation assay, LPS-induced PBMCs or CD14+ monocytes: IL-1β; assay type: cell-based; conditions: 100 ng/mL LPS 18-24 h
# Protocol: (§5) Frozen primary blood mononuclear cells (PBMCs) or frozen CD14+ mobilized peripheral blood monocytes were quick thawed, washed once with RPMI-1640 (10% FBS/1% Pen-Strep), and plated in 96 well plates at 200,000 cells per well. The cells were pretreated with DMSO only or with a compound for 1 h and then induced with 100 ng/mL lipopolysaccharide (LPS) for 18-24 h. The supernatant was analyzed for IL-1β, IL-6, and TNFα using Meso Scale assays. The negative control wells were treated with DMSO.
# IL-6 = assay: Cytokine modulation assay, LPS-induced PBMCs or CD14+ monocytes: IL-6; assay type: cell-based; conditions: 0.1 μM compound, 100 ng/mL LPS 18-24 h
# Protocol: as §5
# TNF-α = assay: Cytokine modulation assay, LPS-induced PBMCs or CD14+ monocytes: TNFα; assay type: cell-based; conditions: 100 ng/mL LPS 18-24 h
# Protocol: as §5
# IL-2 = IL-2 analysis in anti-CD3 stimulated PBMCs; assay type: cell-based, human; conditions: 0.01 μM compound, PBMCs on anti-CD3 coated plates, 24 h
# Protocol: For the IL-2 analysis, 96 well plates were precoated with 1 μg/mL anti-human CD3 antibody (OKT3, eBioscience Inc., San Diego, Calif.). After washed with PBS, the compound was added (50 μL/well), followed by addition of PBMCs diluted at 3-4 million cells/mL (150 μL/well). The plates were incubated for 24 h and the supernatants were collected for IL-2 analysis. IL-2 activity was measured as fold difference from the DMSO control. At a concentration of 0.01 μM, compounds I-1 and I-3 stimulated IL-2 production with 3.7 and 3.9 fold change, respectively, over the DMSO control.
# MOLM-13 cells = assay: MOLM-13 cell viability assay (CellTiter-Glo); assay type: cell-based; conditions: Homo sapiens, MOLM-13, 72 h, 3 days, concentration of 1 μM, read-out: Antiproliferative Activity (inhibition, MOLM-13 cell viability)
# In short: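 MOLM-13 AML cells in RPMI 1640 with 10% FBS, seeded at 2,500 cells/well and exposed to compound or DMSO for 3 days at 37° C, 5% CO2. Viability read as CellTiter-Glo luminescence after 10 min shaking.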
structure (smiles),measurement,setting,value
"O=C1CCC(N2Cc3c(csc3CNC(=O)C(=O)c3ccc(C4(C(F)(F)F)CC4)cc3)C2=O)C(=O)N1 (stereo not shown) [Compound I-3, N-((5-(2,6-dioxopiperidin-3-yl)-4-oxo-5,6-dihydro-4H-thieno[3,4-c]pyrrol-1-yl)methyl)-2-oxo-2-(4-(1-(trifluoromethyl)cyclopropyl)phenyl)acetamide]",Protein Degradation IKAROS,IKAROS,A (a value no less than 80%)
same,Protein Degradation CK1α,CK1α,A (a value no less than 80%)
same,Protein Degradation GSPT1,GSPT1,B (a value less than 80% but no less than 50%)
same,inhibition at 0.1 µM,IL-1β; 0.1 μM compound,> 80%
same,inhibition at 1 µM,IL-1β; 1 μM compound,> 80%
same,inhibition at 0.1 µM,IL-6,25 to 50%
same,inhibition at 0.1 µM,TNF-α; 0.1 μM compound,> 80%
same,inhibition at 1 µM,TNF-α; 1 μM compound,> 80%
same,"IL-2 production, fold change over the DMSO control",IL-2,3.9 fold
same,cytotoxicity at 1 µM,MOLM-13 cells,> 80%
